Assay results taken from ChEMBL document CHEMBL1139416, “Synthesis of a C-glucosylated cyclopropylamide and evaluation as a glycogen phosphorylase inhibitor” (Bioorg Med Chem Lett, 2008).
Activity calls are given as the source filed them. The rule behind the calls is not given here.

How the values were obtained:
Oryctolagus cuniculus [1] = species on record: Oryctolagus cuniculus; test: Inhibition of rabbit muscle glycogen phosphorylase b at 2.5 mM
Oryctolagus cuniculus [2] = species on record: Oryctolagus cuniculus; test: Inhibition of rabbit muscle glycogen phosphorylase b at 625 uM

**Q.** Which inhibition (Oryctolagus cuniculus [1]) does the source give for `O=C(NC1([C@@H]2O[C@H](CO)[C@@H](O)[C@H](O)[C@H]2O)CC1)c1ccccc1` here?
**A.** Its inhibition is 16%.

**Q.** What about the Activity (Oryctolagus cuniculus [2]) of the same molecule?
**A.** Its Activity is “inactive”.
